Measured values reported in patent US10428142B2, “Multipartite signaling proteins and uses thereof” (BLUEBIRD BIO, INC., priority 2013, dated 2019).
Where two headings read alike, the source gives them in different places.

What was measured:
[1] = system: K562-CD19 cells; conditions: for elimination of K562-CD19 cells by bridging factor: rapamycin 10 nM or AP21967 100 nM, 5:1
Procedure: The transduced T cells were then co-incubated with about a 50:50 mixture of the K562 target cells expressing either CD19 (K562-CD19) or CD20 (K562-CD20) to evaluate antigen-specific cytotoxicity. […] The DARIC antigen binding component includes a CD19 antigen binding scFv domain and a FKBP12 multimerization domain, which was linked to a mCherry fluorescent protein.
In addition, two distinct T cell populations were mixed, wherein one population was expressing a DARIC antigen binding component and the other population was expressing a DARIC signaling component.

[2] = system: K562-CD19 target cells
Procedure: (§1) A broad range of bridging factor (rapamycin and everolimus) concentrations were tested to determine whether a DARIC system can function at clinically relevant concentrations. As in the Example 4, primary human T cells were isolated, activated, and then transduced with lentiviral vectors expressing a DARIC binding component (SEQ ID NOS.:1, 4, 7) and a DARIC signaling component (SEQ ID NOS.:15, 19, 23). The DARIC expressing T cells were then co-incubated with 50:50 mixtures of the K562-CD19 and K562-CD20 target cells to evaluate antigen-specific cytotoxicity. The overall ratio of T cells to K562 cells was 5:1 in all samples.

[3] = system: K562-CD19 cells; assay: Deactivation of DARIC cytotoxicity using an anti-bridging factor; assay type: cell-based, human
Procedure: Deactivation of the DARIC system by the addition of a pharmacological agent that competes for binding to one of the multimerization domains was tested. Primary human T cells expressing either a traditional CD19 targeting CAR or primary human T cells expressing the CD19 targeting DARIC components (SEQ ID NO.:66) were co-incubated with 50:50 mixtures of K562-CD19 and K562-CD20 cells.

[4] = system: K562-CD19 target cells; assay: Titration of bridging factors, DARIC T cell cytotoxicity; conditions: DARIC expressing T cells, 5:1, 50:50 K562-CD19:K562-CD20
Procedure: as §1

SMILES: CO[C@H]1[C@@H](O)[C@H](C)C[C@H](C)/C=C/C=C/C=C(\C)[C@@H](c2c[nH]c3c(C)cccc23)C[C@@H]2CC[C@@H](C)[C@@](O)(O2)C(=O)C(=O)N2CCCC[C@H]2C(=O)O[C@H]([C@H](C)C[C@@H]2CC[C@@H](O)[C@H](OC)C2)C[C@H](O)[C@H](C)/C=C(\C)[C@H]1O [AP21967, C-16-(S)-7-methylindolerapamycin]
- elimination of K562-CD19 cells by bridging factor ([1]; T cells with CD19 scFv-FKBP12 binding component and FRB (2021-2113) T2098L signaling component): elimination of the CD19 expressing K562 cells
- elimination of K562-CD19 cells by bridging factor ([1]; T cells with CD19 scFv-FKBP12 binding component and FRB signaling component): no effect on cell survival

SMILES: CO[C@H]1C[C@@H]2CC[C@@H](C)[C@@](O)(O2)C(=O)C(=O)N2CCCC[C@H]2C(=O)O[C@H]([C@H](C)C[C@@H]2CC[C@@H](OCCO)[C@H](OC)C2)CC(=O)[C@H](C)/C=C(\C)[C@@H](O)[C@@H](OC)C(=O)[C@H](C)C[C@H](C)/C=C/C=C/C=C/1C [everolimus]
- cytotoxicity responses over bridging factor concentration [2]: maintained to sub-nanomolar drug concentrations

SMILES: C=CC[C@@H]1/C=C(\C)C[C@H](C)C[C@H](OC)[C@H]2O[C@@](O)(C(=O)C(=O)N3CCCC[C@H]3C(=O)O[C@H](/C(C)=C/[C@@H]3CC[C@@H](O)[C@H](OC)C3)[C@H](C)[C@@H](O)CC1=O)[C@H](C)C[C@@H]2OC [FK506]
- reduction in antigen specific cytotoxicity when added ([3]; CD19 targeting CAR T cells): minimal reduction
- reduction in antigen specific cytotoxicity when added ([3]; CD19 targeting DARIC T cells with rapamycin): marked reduction

SMILES: CO[C@H]1C[C@@H]2CC[C@@H](C)[C@@](O)(O2)C(=O)C(=O)N2CCCC[C@H]2C(=O)O[C@H]([C@H](C)C[C@@H]2CC[C@@H](O)[C@H](OC)C2)CC(=O)[C@H](C)/C=C(\C)[C@@H](O)[C@@H](OC)C(=O)[C@H](C)C[C@H](C)/C=C/C=C/C=C/1C [rapamycin]
- cytotoxicity by bridging factor ([1]; mixed T cell populations, one expressing the binding component, the other the signaling component): cytotoxicity response against K562-CD19 cells
- cytotoxicity responses over bridging factor concentration [4]: maintained to sub-nanomolar drug concentrations
